Experimental data published in publication PMC5218480 (PLoS ONE, 2017).

System: MV-4-11 cells
Experiment: Gene expression microarray analysis (Affymetrix PrimeView) and GSEA
Format: cell-based, human
Design: RFU PODN (11730768_x_at) / Fold change /veh PODN (11730768_x_at) / RFU LINC00158 (11744669_a_at) / Fold change /veh LINC00158 (11744669_a_at) / RFU DUSP10 (11751237_a_at) / Fold change /veh DUSP10 (11751237_a_at) / RFU ID3 (11757404_x_at) / Fold change /veh ID3 (11757404_x_at) / RFU PLEKHG5 (11737974_s_at) / Fold change /veh PLEKHG5 (11737974_s_at) / RFU LRRC4B (11730491_at) / Fold change /veh LRRC4B (11730491_at) / RFU GIMAP4 (11747438_a_at) / Fold change /veh GIMAP4 (11747438_a_at) / RFU KRT8 (11758183_x_at) / Fold change /veh KRT8 (11758183_x_at) / RFU CNN1 (11734310_a_at) / Fold change /veh CNN1 (11734310_a_at) / RFU VPS37D (11726825_at) / Fold change /veh VPS37D (11726825_at) / RFU C10orf10 (11716522_x_at) / Fold change /veh C10orf10 (11716522_x_at) / RFU KIR2DL2 /// KIR2DL4 /// KIR2DL5A /// KIR2DL5B /// KIR2DS1 /// KIR2DS2 /// KIR2DS3 /// KIR2DS4 /// KIR3DL3 /// KIR3DL3 /// KIR3DS1 (11738374_at) / Fold change /veh KIR2DL2 /// KIR2DL4 /// KIR2DL5A /// KIR2DL5B /// KIR2DS1 /// KIR2DS2 /// KIR2DS3 /// KIR2DS4 /// KIR3DL3 /// KIR3DL3 /// KIR3DS1 (11738374_at) / RFU C1QL1 (11718748_at) / Fold change /veh C1QL1 (11718748_at) / RFU TMPRSS4 (11747572_a_at) / Fold change /veh TMPRSS4 (11747572_a_at) / RFU HAMP (11756126_x_at) / Fold change /veh HAMP (11756126_x_at) / RFU RNFT2 (11725882_a_at) / Fold change /veh RNFT2 (11725882_a_at) / RFU NR4A2 (11747474_a_at) / Fold change /veh NR4A2 (11747474_a_at) / RFU ABCC12 (11746883_a_at) / Fold change /veh ABCC12 (11746883_a_at) / RFU TMEM136 (11760407_x_at) / Fold change /veh TMEM136 (11760407_x_at) / RFU CLDN22 /// WWC2 (11732394_at) / Fold change /veh CLDN22 /// WWC2 (11732394_at) / RFU HLA-DPB1 (11760878_x_at) / Fold change /veh HLA-DPB1 (11760878_x_at) / RFU SPINT1 (11716480_a_at) / Fold change /veh SPINT1 (11716480_a_at) / RFU GAP43 (11754022_s_at) / Fold change /veh GAP43 (11754022_s_at) / RFU A4GNT (11735810_at) / Fold change /veh A4GNT (11735810_at) / RFU PRB3 (11715151_x_at) / Fold change /veh PRB3 (11715151_x_at) / RFU TUBB4B (11761932_at) / Fold change /veh TUBB4B (11761932_at) / RFU CAPN14 (11732068_a_at) / Fold change /veh CAPN14 (11732068_a_at) / RFU TMCC2 (11721928_a_at) / Fold change /veh TMCC2 (11721928_a_at) / RFU IRGQ (11745062_a_at) / Fold change /veh IRGQ (11745062_a_at) / RFU FAM174B (11720279_a_at) / Fold change /veh FAM174B (11720279_a_at) / RFU TMPRSS4 (11748680_a_at) / Fold change /veh TMPRSS4 (11748680_a_at) / RFU FAM212B (11763350_a_at) / Fold change /veh FAM212B (11763350_a_at) / RFU PLEKHG5 (11743358_a_at) / Fold change /veh PLEKHG5 (11743358_a_at) / RFU ZSCAN30 (11745921_a_at) / Fold change /veh ZSCAN30 (11745921_a_at) / RFU CMKLR1 (11741424_a_at) / Fold change /veh CMKLR1 (11741424_a_at) / RFU LOC101060620 /// MAPK8IP1 (11723275_at) / Fold change /veh LOC101060620 /// MAPK8IP1 (11723275_at) / RFU SPTSSB (11747773_x_at) / Fold change /veh SPTSSB (11747773_x_at) / RFU PRSS12 (11739890_at) / Fold change /veh PRSS12 (11739890_at) / RFU BIN1 (11741810_x_at) / Fold change /veh BIN1 (11741810_x_at) / RFU WNT11 (11732464_a_at) / Fold change /veh WNT11 (11732464_a_at) / RFU C10orf10 (11716521_a_at) / Fold change /veh C10orf10 (11716521_a_at) / RFU C5orf56 (11738089_at) / Fold change /veh C5orf56 (11738089_at) / RFU CYB561 (11721691_x_at) / Fold change /veh CYB561 (11721691_x_at) / RFU ANKRD19P (11752326_a_at) / Fold change /veh ANKRD19P (11752326_a_at) / RFU OR2T12 /// OR2T33 /// OR2T8 (11738714_s_at) / Fold change /veh OR2T12 /// OR2T33 /// OR2T8 (11738714_s_at) / RFU VCAN (11748164_a_at) / Fold change /veh VCAN (11748164_a_at) / RFU JSRP1 (11732532_at) / Fold change /veh JSRP1 (11732532_at) / RFU KRTAP10-11 (11738290_x_at) / Fold change /veh KRTAP10-11 (11738290_x_at) / RFU MYO3A (11730013_a_at) / Fold change /veh MYO3A (11730013_a_at) / RFU EBF3 (11725865_a_at) / Fold change /veh EBF3 (11725865_a_at) / RFU CAMK2N1 (11719241_x_at) / Fold change /veh CAMK2N1 (11719241_x_at) / RFU C5orf56 (11738088_a_at) / Fold change /veh C5orf56 (11738088_a_at) / RFU OLFML3 (11715873_a_at) / Fold change /veh OLFML3 (11715873_a_at) / RFU LOC100653217 /// NTM (11731650_a_at) / Fold change /veh LOC100653217 /// NTM (11731650_a_at) / RFU MAPK11 (11762145_a_at) / Fold change /veh MAPK11 (11762145_a_at) / RFU FIZ1 (11724087_x_at) / Fold change /veh FIZ1 (11724087_x_at) / RFU OASL (11726364_x_at) / Fold change /veh OASL (11726364_x_at) / RFU SOX15 (11748057_x_at) / Fold change /veh SOX15 (11748057_x_at) / RFU CD79A (11719716_a_at) / Fold change /veh CD79A (11719716_a_at) / RFU HIST1H1D (11736915_at) / Fold change /veh HIST1H1D (11736915_at) / RFU CASKIN2 (11723855_a_at) / Fold change /veh CASKIN2 (11723855_a_at) / RFU LOC730098 (11760151_x_at) / Fold change /veh LOC730098 (11760151_x_at) / RFU OR4N2 (11742367_at) / Fold change /veh OR4N2 (11742367_at) / RFU PRRT2 (11749266_a_at) / Fold change /veh PRRT2 (11749266_a_at) / RFU SNX32 (11753110_a_at) / Fold change /veh SNX32 (11753110_a_at) / RFU CDHR5 (11726645_a_at) / Fold change /veh CDHR5 (11726645_a_at) / RFU RCAN1 (11760418_a_at) / Fold change /veh RCAN1 (11760418_a_at) / RFU FAM167A (11723789_a_at) / Fold change /veh FAM167A (11723789_a_at) / RFU FAM26E (11764081_at) / Fold change /veh FAM26E (11764081_at) / RFU ISYNA1 (11749810_s_at) / Fold change /veh ISYNA1 (11749810_s_at) / RFU ACY1 (11761880_at) / Fold change /veh ACY1 (11761880_at) / RFU 11764098_at / Fold change /veh 11764098_at / RFU SAMD14 (11745864_x_at) / Fold change /veh SAMD14 (11745864_x_at) / RFU NPB (11741838_a_at) / Fold change /veh NPB (11741838_a_at) / RFU TMPRSS6 (11731388_a_at) / Fold change /veh TMPRSS6 (11731388_a_at) / RFU KRTAP10-2 (11738614_at) / Fold change /veh KRTAP10-2 (11738614_at) / RFU ARHGAP8 /// PRR5-ARHGAP8 (11727945_x_at) / Fold change /veh ARHGAP8 /// PRR5-ARHGAP8 (11727945_x_at) / RFU KRTAP5-7 /// NADSYN1 (11734609_at) / Fold change /veh KRTAP5-7 /// NADSYN1 (11734609_at) / RFU RASL12 (11751679_a_at) / Fold change /veh RASL12 (11751679_a_at) / RFU CDKN2B (11736163_a_at) / Fold change /veh CDKN2B (11736163_a_at) / RFU PRF1 (11729649_at) / Fold change /veh PRF1 (11729649_at) / RFU, ZNF638 /// ZNF638-IT1 / Fold change vs veh, ZNF638 /// ZNF638-IT1 / RFU, PANK3 / Fold change vs veh, PANK3 / RFU, SH3YL1 / Fold change vs veh, SH3YL1 / RFU, ZEB2 / Fold change vs veh, ZEB2 / RFU, NRIP1 / Fold change vs veh, NRIP1 / RFU, PTTG1IP / Fold change vs veh, PTTG1IP / RFU, CAPN2 / Fold change vs veh, CAPN2 / RFU, MED14 / Fold change vs veh, MED14 / RFU, SNORA58 / Fold change vs veh, SNORA58 / RFU, C1orf63 / Fold change vs veh, C1orf63 / RFU, LRRFIP1 / Fold change vs veh, LRRFIP1 / RFU, NDUFAF7 / Fold change vs veh, NDUFAF7 / RFU, SLC12A2 / Fold change vs veh, SLC12A2 / RFU, IBTK / Fold change vs veh, IBTK / RFU, ESF1 / Fold change vs veh, ESF1 / Fold change vs veh, TMEM50B / RFU, TAOK1 / Fold change vs veh, TAOK1 / RFU, ACBD3 / Fold change vs veh, ACBD3 / RFU, TMA16 / Fold change vs veh, TMA16 / RFU, RWDD3 / Fold change vs veh, RWDD3 / RFU, BCAT1 / Fold change vs veh, BCAT1 / RFU, EDEM3 / Fold change vs veh, EDEM3 / RFU, TMEM33 / Fold change vs veh, TMEM33 / RFU, WDR75 / Fold change vs veh, WDR75 / RFU, AHCTF1 / Fold change vs veh, AHCTF1 / RFU, TFRC / Fold change vs veh, TFRC / RFU, ZDHHC17 / Fold change vs veh, ZDHHC17 / RFU, NOM1 / Fold change vs veh, NOM1 / RFU, ARL8B / Fold change vs veh, ARL8B / RFU, ZBTB11 / Fold change vs veh, ZBTB11 / RFU, TAMM41 / Fold change vs veh, TAMM41 / RFU, KIAA1704 /// LOC100996395 / Fold change vs veh, KIAA1704 /// LOC100996395 / RFU, ING1 / Fold change vs veh, ING1 / RFU, TRMT61B / Fold change vs veh, TRMT61B / RFU, FUBP3 / Fold change vs veh, FUBP3 / RFU, TP53 / Fold change vs veh, TP53 / RFU, TNKS2 / Fold change vs veh, TNKS2 / RFU, ZFP14 / Fold change vs veh, ZFP14 / RFU, ACTR2 / Fold change vs veh, ACTR2 / RFU, PPP3R1 / Fold change vs veh, PPP3R1 / RFU, PIK3R1 / Fold change vs veh, PIK3R1 / RFU, HNRNPA1 / Fold change vs veh, HNRNPA1 / RFU, RNF170 / Fold change vs veh, RNF170 / RFU, ZNF28 / Fold change vs veh, ZNF28 / RFU, RNGTT / Fold change vs veh, RNGTT / RFU, OGT / Fold change vs veh, OGT / RFU, BRD1 / Fold change vs veh, BRD1 / RFU, MARS / Fold change vs veh, MARS / RFU, ZNF655 / Fold change vs veh, ZNF655 / RFU, FAHD1 / Fold change vs veh, FAHD1 / RFU, BDP1 / Fold change vs veh, BDP1 / RFU, LRRCC1 / Fold change vs veh, LRRCC1 / RFU, ARID1A / Fold change vs veh, ARID1A / RFU, ZNF146 / Fold change vs veh, ZNF146 / RFU, ZNF330 / Fold change vs veh, ZNF330 / RFU, GPN3 / Fold change vs veh, GPN3 / RFU, C9orf123 / Fold change vs veh, C9orf123 / RFU, N4BP2L2 / Fold change vs veh, N4BP2L2 / RFU, ARFIP1 / Fold change vs veh, ARFIP1 / RFU, FAM179B / Fold change vs veh, FAM179B / RFU, BCL10 / Fold change vs veh, BCL10 / RFU, UHRF1BP1L / Fold change vs veh, UHRF1BP1L / RFU, BET1 / Fold change vs veh, BET1 / RFU, CNOT2 / Fold change vs veh, CNOT2 / RFU, ZNF268 / Fold change vs veh, ZNF268 / Fold change vs veh, ZNF507 / RFU, DGCR2 / Fold change vs veh, DGCR2 / RFU, WDSUB1 / Fold change vs veh, WDSUB1 / Fold change vs veh, HSP90B1 /// MIR3652 / RFU, ADSS / Fold change vs veh, ADSS / RFU, GK / Fold change vs veh, GK / RFU, ZNF148 / Fold change vs veh, ZNF148 / RFU, TAF9 / Fold change vs veh, TAF9 / RFU, SLC1A5 / Fold change vs veh, SLC1A5 / RFU, SLMO2 / Fold change vs veh, SLMO2 / RFU, ABCC4 / Fold change vs veh, ABCC4 / RFU, LOC101060439 /// RAP1B / Fold change vs veh, LOC101060439 /// RAP1B / RFU, RFX7 / Fold change vs veh, RFX7 / RFU, GTPBP10 / Fold change vs veh, GTPBP10 / RFU, CNEP1R1 / Fold change vs veh, CNEP1R1 / RFU, BIVM-ERCC5 /// ERCC5 / Fold change vs veh, BIVM-ERCC5 /// ERCC5 / RFU, ILF3 / Fold change vs veh, ILF3 / RFU 11762660_at / Fold change /veh 11762660_at / RFU VCAN (11757783_s_at) / Fold change /veh VCAN (11757783_s_at) / RFU DDX43 (11728927_at) / Fold change /veh DDX43 (11728927_at) / RFU KRT8 (11758188_x_at) / Fold change /veh KRT8 (11758188_x_at) / RFU NKD1 (11759106_at) / Fold change /veh NKD1 (11759106_at) / RFU SRD5A1 (11742802_a_at) / Fold change /veh SRD5A1 (11742802_a_at) / RFU TPSAB1 /// TPSB2 (11721975_s_at) / Fold change /veh TPSAB1 /// TPSB2 (11721975_s_at) / RFU GSTM3 (11746129_a_at) / Fold change /veh GSTM3 (11746129_a_at) / RFU IL23R (11737362_x_at) / Fold change /veh IL23R (11737362_x_at) / RFU TMEM51 (11727254_a_at) / Fold change /veh TMEM51 (11727254_a_at) / RFU PIWIL2 (11732686_x_at) / Fold change /veh PIWIL2 (11732686_x_at) / RFU ORM1 (11744905_x_at) / Fold change /veh ORM1 (11744905_x_at) / RFU CCDC152 (11743942_at) / Fold change /veh CCDC152 (11743942_at) / RFU ECM1 (11717891_a_at) / Fold change /veh ECM1 (11717891_a_at) / RFU IL23R (11748794_a_at) / Fold change /veh IL23R (11748794_a_at) / RFU TNFAIP8L3 (11732012_x_at) / Fold change /veh TNFAIP8L3 (11732012_x_at) / RFU MBOAT4 (11741988_at) / Fold change /veh MBOAT4 (11741988_at) / RFU 11764193_at / Fold change /veh 11764193_at / RFU TMEM53 (11763286_at) / Fold change /veh TMEM53 (11763286_at) / RFU MAGEB2 (11727129_at) / Fold change /veh MAGEB2 (11727129_at) / RFU TMEM200A (11744735_a_at) / Fold change /veh TMEM200A (11744735_a_at) / RFU CCDC152 (11751479_a_at) / Fold change /veh CCDC152 (11751479_a_at) / RFU FAM211A (11726209_a_at) / Fold change /veh FAM211A (11726209_a_at) / RFU RGS16 (11746705_a_at) / Fold change /veh RGS16 (11746705_a_at) / RFU VCAN (11755009_s_at) / Fold change /veh VCAN (11755009_s_at) / RFU RHOB (11743442_s_at) / Fold change /veh RHOB (11743442_s_at) / RFU RGS16 (11720943_a_at) / Fold change /veh RGS16 (11720943_a_at) / RFU RGS16 (11720944_at) / Fold change /veh RGS16 (11720944_at) / RFU, VPS4B / Fold change vs veh, VPS4B / RFU, CREB1 / Fold change vs veh, CREB1 / RFU, DNAJC13 / Fold change vs veh, DNAJC13 / RFU, GNAQ / Fold change vs veh, GNAQ / RFU, CDK5R1 / Fold change vs veh, CDK5R1 / RFU, ZRANB3 / Fold change vs veh, ZRANB3 / RFU, CUL4A / Fold change vs veh, CUL4A / RFU, CCNY / Fold change vs veh, CCNY / RFU, UFL1 / Fold change vs veh, UFL1 / RFU, COG3 / Fold change vs veh, COG3 / RFU, DIAPH2 / Fold change vs veh, DIAPH2 / RFU, SKA2 / Fold change vs veh, SKA2 / RFU, AFF3 / Fold change vs veh, AFF3 / RFU, LMF1 / Fold change vs veh, LMF1 / RFU, IPO11 / Fold change vs veh, IPO11 / RFU, DFFB / Fold change vs veh, DFFB / RFU, FOXP1 / Fold change vs veh, FOXP1 / RFU, CARD8 / Fold change vs veh, CARD8 / RFU, STRN3 / Fold change vs veh, STRN3 / RFU, ADK / Fold change vs veh, ADK / RFU, RASSF2 / Fold change vs veh, RASSF2 / RFU, WIPF1 / Fold change vs veh, WIPF1 / RFU, LARP1B / Fold change vs veh, LARP1B / RFU, RASA1 / Fold change vs veh, RASA1 / RFU, RB1 / Fold change vs veh, RB1 / RFU, PPFIA1 / Fold change vs veh, PPFIA1 / RFU, MAT2A / Fold change vs veh, MAT2A / RFU, CCT5 / Fold change vs veh, CCT5 / RFU, WDR92 / Fold change vs veh, WDR92 / RFU, CUX1 / Fold change vs veh, CUX1 / RFU, TTC7A / Fold change vs veh, TTC7A / RFU, TMEM135 / Fold change vs veh, TMEM135 / RFU, DEPTOR / Fold change vs veh, DEPTOR / RFU, CPM / Fold change vs veh, CPM / RFU, DNAJB6 / Fold change vs veh, DNAJB6 / RFU, CACNA2D3 / Fold change vs veh, CACNA2D3 / RFU, DTX4 / Fold change vs veh, DTX4 / RFU, TFCP2 / Fold change vs veh, TFCP2 / RFU, GMCL1 /// GMCL1P1 / Fold change vs veh, GMCL1 /// GMCL1P1 / RFU, AEBP2 / Fold change vs veh, AEBP2 / RFU, SNHG1 /// SNORD22 /// SNORD25 /// SNORD26 /// SNORD27 /// SNORD28 /// SNORD29 /// SNORD31 / Fold change vs veh, SNHG1 /// SNORD22 /// SNORD25 /// SNORD26 /// SNORD27 /// SNORD28 /// SNORD29 /// SNORD31 / Fold change (Aza/veh), C12orf56 (ProbeSet 11735607_a_at) / Fold change (ACY-1035/veh), C12orf56 (ProbeSet 11735607_a_at) / Fold change (Aza/veh), FGFR1OP (ProbeSet 11751329_s_at) / Fold change (ACY-1035/veh), FGFR1OP (ProbeSet 11751329_s_at) / Fold change (Aza/veh), VPS36 (ProbeSet 11739960_a_at) / Fold change (ACY-1035/veh), VPS36 (ProbeSet 11739960_a_at) / RFU SYPL1 (11715823_x_at) / Fold change /veh SYPL1 (11715823_x_at) / RFU IGFBP7 (11715501_s_at) / Fold change /veh IGFBP7 (11715501_s_at) / RFU REEP3 (11722064_at) / Fold change /veh REEP3 (11722064_at) / RFU IGLL1 (11728026_x_at) / Fold change /veh IGLL1 (11728026_x_at): dose or concentration left out as unconfirmed
Settings: ProbeSet 11728271_at; LIST B

Nc1ncn([C@@H]2O[C@H](CO)[C@@H](O)[C@H]2O)c(=O)n1 [azacitidine]
RFU, ZNF330: 711.81 RFU
